Data published in patent US7261876B2, “Multivalent constructs for therapeutic and diagnostic applications” (Bracco International BV, priority 2002, dated 2007).
Entries after “also recorded” stand apart in the source; their conditions may differ. Positions of bridges follow the written chain, without caps; N, C: chain ends. Non-standard residues stand in square brackets, D forms with d. Residues, ends and D or L forms follow the SMILES beside them. Lys(ivDde) = CC(C)CC(NCCCC[C@H](N)C(=O)O)=C1C(=O)CC(C)(C)CC1=O

Assays:
KDR = biological target: T1, KDR (Homo sapiens, UniProt P35968); assay: VEGF-induced KDR receptor activation (phosphorylation) assay in HUVECs; assay type: cell-based; details: for inhibition of VEGF-induced activation of KDR: concentration not given
T1 construct: host or cells: HUVEC
From the text: Human umbilical vein endothelial cells (HUVECs) (Biowhittaker Cat No. CC-2519) were obtained frozen on dry ice and stored in liquid nitrogen until thawing. These cells were thawed, passaged, and maintained as described by the manufacturer in EGM-MV medium (Biowhittaker Cat No. CC-3125). Cells seeded into 100 mm dishes were allowed to become confluent, then cultured overnight in basal EBM medium lacking serum (Biowhittaker Cat No. CC-3121). The next morning, the medium in the dishes was replaced with 10 mL fresh EBM medium at 37° C. containing either no additive (negative control), 5 ng/mL VEGF (Calbiochem Cat No. 676472 or Peprotech Cat No. 100-20) (positive control), or 5 ng/mL VEGF plus the indicated concentration of the KDR-binding peptide (prepared as described above). In some cases, a neutralizing anti-KDR antibody (Cat No. AF357, R&D Systems) was used as a positive control inhibitor of activation. In such cases, the antibody was pre-incubated with the test cells for 30 min at 37° C. prior to the addition of fresh medium containing both VEGF and the antibody. After incubating the dishes 5 min in a 37° C. tissue culture incubator they were washed three times with ice-cold Dulbecco's phosphate buffered saline (D-PBS) containing calcium and magnesium and placed on ice without removing the last 10 mL of D-PBS. The first dish of a set was drained and 0.5 mL of Triton lysis buffer was added (20 mM Tris base pH 8.0, 137 mM NaCl, 10% glycerol, 1% Triton X-100, 2 mM EDTA (ethylenediaminetetraacetic acid), 1 mM PMSF (phenylmethylsulfonylfluoride), 1 mM sodium orthovanadate, 100 mM NaF, 50 mM sodium pyrophosphate, 10 μg/mL leupeptin, 10 μg/mL aprotinin). The cells were quickly scraped into the lysis buffer using a cell scraper (Falcon, Cat No. 353087), dispersed by pipeting up and down briefly, and the resulting lysate was transferred to the second drained dish of the pair. Another 0.5 mL of lysis buffer was used to rinse out the first dish then transferred to the second dish, which was then also scraped and dispersed. The pooled lysate from the two dishes was transferred to a 1.5 mL Eppindorf tube. The above procedure was repeated for each of the controls and test samples (KDR-binding peptides), one at a time. The lysates were stored on ice until all the samples had been processed. At this point samples were either stored at −70° C. or processed to the end of the assay without interruption.
The lysates, either freshly prepared or frozen and thawed, were precleared by adding 20 μL of protein A-sepharose beads (Sigma 3391, preswollen in D-PBS), washed three times with a large excess of D-PBS, reconstituted with 6 mL D-PBS to generate a 50% slurry) and rocked at 4° C. for 30 min. The beads were pelleted by centrifugation for 2 min in a Picofuge (Stratgene, Cat No. 400550) at 2000×g and the supernatants transferred to new 1.5 mL tubes. 20 μg of anti-Flk-1 antibody (Santa Cruz Biotechnology, Cat No. sc-504) was added to each tube, and the tubes were incubated overnight (16–18 h) at 4° C. on a rotator to immunoprecipitate KDR. The next day 40 μL of protein A-sepharose beads were added to the tubes, which were then incubated at 4° C. for 1 h on a rotator. The beads in each tube were subsequently washed three times by centrifuging for 2 min in a Picofuge, discarding the supernatant, and dispersing the beads in 1 mL freshly added TBST buffer (20 mM Tris base pH 7.5, 137 mM NaCl, and 0.1% Tween 20). After centrifuging and removing the liquid from the last wash, 40 μL of Laemmli SDS-PAGE sample buffer (Bio-Rad, Cat No. 161-0737) was added to each tube and the tubes were capped and boiled for 5 min. After cooling, the beads in each tube were pelleted by centrifuging and the supernatants containing the immunoprecipitated KDR were transferred to new tubes and used immediately or frozen and stored at −70° C. for later analysis.
Detection of phosphorylated KDR as well as total KDR in the immunoprecipitates was carried out by immunoblot analysis. […]

Soluble KDR receptor = biological target: T2, Soluble KDR receptor (Homo sapiens, UniProt P35968); assay: Surface plasmon resonance (Biacore 3000) of P9/P10 heterodimers; assay type: binding
T2 construct: Soluble KDR receptor was cross-linked to the dextran surface of a CM5 sensor chip

[1] = biological target: T3, KDR expressed by transfected 293H cells (Homo sapiens, UniProt P35968); assay: Competition with 125I-labeled VEGF for binding to KDR-transfected 293H cells
T3 construct: Both PCR products were digested with Not1 and ligated together to create the full-length receptor; V5-His (encoded by the vector); expressed in transfected cells; host or cells: 293H cells (Invitrogen cat. # 11631), transient lipofectamine 2000 transfection
T3 sequence (P35968 20-1356): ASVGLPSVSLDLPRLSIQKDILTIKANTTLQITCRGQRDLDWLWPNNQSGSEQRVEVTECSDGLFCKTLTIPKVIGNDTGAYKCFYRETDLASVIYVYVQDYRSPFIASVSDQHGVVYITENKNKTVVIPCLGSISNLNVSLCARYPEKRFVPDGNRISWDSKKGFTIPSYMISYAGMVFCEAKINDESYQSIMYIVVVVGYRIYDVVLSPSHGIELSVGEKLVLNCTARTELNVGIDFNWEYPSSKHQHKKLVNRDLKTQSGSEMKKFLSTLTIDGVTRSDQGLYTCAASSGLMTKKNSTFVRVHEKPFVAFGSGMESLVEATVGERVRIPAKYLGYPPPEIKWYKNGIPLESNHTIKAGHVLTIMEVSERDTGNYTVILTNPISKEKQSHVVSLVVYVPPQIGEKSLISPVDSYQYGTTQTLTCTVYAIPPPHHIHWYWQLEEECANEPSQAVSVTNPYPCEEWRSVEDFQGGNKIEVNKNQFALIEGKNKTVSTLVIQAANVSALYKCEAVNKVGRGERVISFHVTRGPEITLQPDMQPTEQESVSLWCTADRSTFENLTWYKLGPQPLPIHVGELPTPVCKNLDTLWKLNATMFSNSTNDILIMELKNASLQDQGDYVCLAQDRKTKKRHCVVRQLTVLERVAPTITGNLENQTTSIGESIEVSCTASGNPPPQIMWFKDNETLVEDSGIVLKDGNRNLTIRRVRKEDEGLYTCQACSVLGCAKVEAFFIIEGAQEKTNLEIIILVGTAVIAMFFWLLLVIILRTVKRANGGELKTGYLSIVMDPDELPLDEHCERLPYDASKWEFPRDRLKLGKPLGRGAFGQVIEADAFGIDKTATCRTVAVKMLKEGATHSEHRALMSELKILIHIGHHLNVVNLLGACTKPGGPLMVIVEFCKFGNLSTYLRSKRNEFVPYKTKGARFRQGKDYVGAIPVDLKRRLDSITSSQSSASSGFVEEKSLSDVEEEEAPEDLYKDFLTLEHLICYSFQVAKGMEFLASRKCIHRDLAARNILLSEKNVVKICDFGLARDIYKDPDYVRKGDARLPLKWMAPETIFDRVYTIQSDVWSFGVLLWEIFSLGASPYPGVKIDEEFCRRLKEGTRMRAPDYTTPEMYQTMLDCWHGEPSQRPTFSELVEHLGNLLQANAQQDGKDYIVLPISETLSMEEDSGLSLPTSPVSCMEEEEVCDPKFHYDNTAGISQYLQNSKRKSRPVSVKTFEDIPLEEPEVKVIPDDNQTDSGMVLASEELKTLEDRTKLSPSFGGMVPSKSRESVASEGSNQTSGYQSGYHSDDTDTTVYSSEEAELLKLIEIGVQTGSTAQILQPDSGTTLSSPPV
Procedure: Once prepared, the solutions were kept on ice until ready to use.
Cells were used 24 h after transfection, and to prepare the cells for the assay, they were washed 3 times with room temperature M199 medium and placed in the refrigerator. […] After incubating at 4° C. for 2 h, the plates were washed 5 times with cold binding buffer, gently blotted dry and checked under a microscope for cell loss. 100 μL of solubilizing solution (2% Triton X-100, 10% Glycerol, 0.1% BSA) was added to each well and the plates were incubated at room temperature for 30 minutes. The solubilizing solution in each well was mixed by pipeting up and down, and transferred to 1.2 mL tubes. Each well was washed twice with 100 μL of solubilizing solution and the washes were added to the corresponding 1.2 mL tube.
After washing the cells, the bound radioactivity was quantitated on a gamma counter.

T1 sequence (P35968 20-1356): as above
T2 sequence (P35968 20-764 limits assumed): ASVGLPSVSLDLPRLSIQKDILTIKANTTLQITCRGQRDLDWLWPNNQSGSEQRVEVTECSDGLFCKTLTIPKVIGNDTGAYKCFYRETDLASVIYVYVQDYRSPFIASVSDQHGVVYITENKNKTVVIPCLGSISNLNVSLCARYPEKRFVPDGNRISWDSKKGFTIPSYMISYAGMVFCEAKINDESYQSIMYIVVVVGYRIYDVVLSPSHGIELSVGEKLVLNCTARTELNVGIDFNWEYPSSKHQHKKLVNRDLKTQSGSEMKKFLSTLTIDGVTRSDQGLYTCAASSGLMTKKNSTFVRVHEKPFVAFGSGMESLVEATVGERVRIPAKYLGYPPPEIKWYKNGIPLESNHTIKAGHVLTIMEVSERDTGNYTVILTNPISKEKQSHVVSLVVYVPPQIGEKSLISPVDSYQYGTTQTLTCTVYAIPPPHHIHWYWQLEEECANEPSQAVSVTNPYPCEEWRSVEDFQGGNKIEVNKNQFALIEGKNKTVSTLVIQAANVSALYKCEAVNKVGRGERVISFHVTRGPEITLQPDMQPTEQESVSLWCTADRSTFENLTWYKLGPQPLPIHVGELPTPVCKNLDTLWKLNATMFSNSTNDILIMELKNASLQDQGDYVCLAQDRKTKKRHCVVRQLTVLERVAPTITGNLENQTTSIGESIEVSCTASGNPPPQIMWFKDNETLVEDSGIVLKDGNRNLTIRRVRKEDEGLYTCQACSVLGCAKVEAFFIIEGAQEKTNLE

CC(=O)N[C@@H](C)C(=O)N[C@@H](CCC(N)=O)C(=O)N[C@@H](CCCNC(=N)N)C(=O)NCC(=O)N[C@@H](CC(=O)O)C(=O)N[C@@H](Cc1ccc(O)cc1)C(=O)N[C@@H](CCC(N)=O)C(=O)N[C@@H](CCC(=O)O)C(=O)N[C@@H](CCC(N)=O)C(=O)N[C@@H](Cc1ccc(O)cc1)C(=O)N[C@@H](Cc1c[nH]c2ccccc12)C(=O)N[C@@H](Cc1c[nH]cn1)C(=O)N[C@@H](CCC(N)=O)C(=O)N[C@@H](CCC(N)=O)C(=O)N[C@@H](CC(C)C)C(=O)N[C@H](C(=O)N[C@@H](CCC(=O)O)C(=O)N[C@@H](CCC(N)=O)C(=O)N[C@@H](CC(C)C)C(=O)N[C@@H](CCCCNC(CC(C)C)=C1C(=O)CC(C)(C)CC1=O)C(=O)N[C@@H](CC(C)C)C(=O)N[C@@H](CC(C)C)C(=O)NCC(=O)NCC(=O)NCC(=O)N[C@@H](CCCCN)C(N)=O)C(C)C [P19-E] (Ac-AQRGDYQEQYWHQQLVEQL[Lys(ivDde)]LLGGGK-NH2)
inhibition of KDR activation (KDR; 10 μM): did not produce significant inhibition of KDR activation

CSCC[C@@H]1NC(=O)[C@H](CC(N)=O)NC(=O)[C@H](CO)NC(=O)[C@H](Cc2c[nH]c3ccccc23)NC(=O)CNC(=O)[C@@H](NC(=O)[C@H](CCC(=O)O)NC(=O)[C@H](Cc2c[nH]c3ccccc23)NC(=O)[C@H](CC(N)=O)NC(=O)[C@H](CC(=O)O)NC(=O)CNC(C)=O)CSSC[C@@H](C(=O)N[C@@H](C)C(=O)N[C@@H](CCCNC(=N)N)C(=O)N2CCC[C@H]2C(=O)N[C@@H](CC(=O)O)C(=O)N2CCC[C@H]2C(=O)NCC(=O)NCC(=O)NCC(=O)N[C@@H](CCCCN)C(N)=O)NC(=O)[C@H](Cc2ccccc2)NC(=O)[C@H](CCC(=O)O)NC(=O)[C@H](CCCCNC(CC(C)C)=C2C(=O)CC(C)(C)CC2=O)NC(=O)[C@H](CCC(N)=O)NC(=O)[C@H](Cc2ccccc2)NC1=O [P20-E] (Ac-GDNWECGWSNMFQ[Lys(ivDde)]EFCARPDPGGGK-NH2; disulfide 6-17)
inhibition of KDR activation (KDR; 10 μM): did not produce significant inhibition of KDR activation

CSCC[C@H](NC(=O)[C@H](Cc1ccc(O)cc1)NC(=O)[C@H](Cc1c[nH]c2ccccc12)NC(=O)[C@@H]1CSSC[C@H](NC(=O)[C@@H]2CCCN2C(=O)CNC(=O)[C@@H]2CCCN2C(=O)CNC(=O)[C@H](C)NC(C)=O)C(=O)N[C@@H](CCCCNC(CC(C)C)=C2C(=O)CC(C)(C)CC2=O)C(=O)NCC(=O)N[C@@H](Cc2ccc(O)cc2)C(=O)N[C@@H](CCSC)C(=O)N2CCC[C@H]2C(=O)N[C@@H](Cc2c[nH]cn2)C(=O)N[C@@H](CCC(N)=O)C(=O)N1)C(=O)NCC(=O)N[C@H](C(=O)NCC(=O)NCC(=O)NCC(=O)N[C@@H](CCCCN)C(N)=O)[C@@H](C)O [P21-E] (Ac-AGPGPC[Lys(ivDde)]GYMPHQCWYMGTGGGK-NH2; disulfide 6-14)
inhibition of KDR activation (KDR; 10 μM): did not produce significant inhibition of KDR activation

CC[C@H](C)[C@H](NC(=O)[C@H](Cc1c[nH]c2ccccc12)NC(=O)[C@H](Cc1ccc(O)cc1)NC(=O)[C@H](CC(=O)O)NC(=O)[C@H](CC(=O)O)NC(=O)CNC(=O)CNC(=O)[C@H](Cc1ccccc1)NC(=O)[C@H](CCCNC(=N)N)NC(=O)[C@@H]1CCCN1C(=O)[C@H](Cc1ccccc1)NC(=O)[C@H](C)NC(=O)[C@H](CCC(N)=O)NC(=O)[C@H](C)NC(C)=O)C(=O)N[C@@H](CCC(N)=O)C(=O)N[C@@H](CCC(N)=O)C(=O)N[C@@H](Cc1ccc(O)cc1)C(=O)N[C@@H](CC(C)C)C(=O)N[C@@H](CCCNC(=N)N)C(=O)N[C@@H](Cc1ccc(O)cc1)C(=O)N[C@H](C(=O)N[C@@H](CC(=O)O)C(=O)NCC(=O)NCC(=O)N[C@@H](CCCCNC(=O)CCOCCOCCOCCOCCNC(=O)CON=C(C)CCC(=O)NCCOCCOCCOCCOCCC(=O)NCCCC[C@H](NC(=O)CNC(=O)CNC(=O)[C@H](CC(=O)O)NC(=O)CNC(=O)[C@H](CC(=O)O)NC(=O)[C@H](CCC(=O)O)NC(=O)[C@H](CCC(=O)O)NC(=O)[C@H](Cc1c[nH]cn1)NC(=O)[C@H](Cc1ccc(O)cc1)NC(=O)[C@H](CC(C)C)NC(=O)[C@@H](NC(=O)[C@@H](NC(=O)[C@@H](NC(=O)[C@H](CCC(=O)O)NC(=O)[C@H](Cc1c[nH]c2ccccc12)NC(=O)[C@H](Cc1ccc(O)cc1)NC(=O)[C@H](C)NC(=O)[C@H](Cc1ccc(O)cc1)NC(=O)CNC(=O)[C@H](CCC(=O)O)NC(=O)[C@@H]1CCCN1C(=O)[C@H](CCC(=O)O)NC(=O)[C@H](CCC(N)=O)NC(=O)[C@H](C)NC(C)=O)C(C)C)[C@@H](C)CC)[C@@H](C)O)C(N)=O)C(N)=O)[C@@H](C)O [Tail-to-tail dimer]
increase in affinity over the individual monomer (Soluble KDR receptor): greater than 60 fold
kd,1 (Soluble KDR receptor): 0.00128 s⁻¹
kon (Soluble KDR receptor; pH 7.65, read-out: ka,1): 115000 M⁻¹ s⁻¹

AGDSWCSTEYTYCEMIGT [P4]
competition with 125I-VEGF for binding to KDR-transfected cells [1]: did not compete significantly

AQAFPRFGGDDYWIQQYLRYTDGG [P10]
kd,1 (Soluble KDR receptor): 0.45 s⁻¹
inhibition of KDR activation (KDR; 10 μM): clearly able to partially block the VEGF-induced activation of KDR

AQEPEGYAYWEVITLYHEEDGDGG [P9]
kd,1 (Soluble KDR receptor): 0.00332 s⁻¹

Ac-AGPKWC*EEDWYYC*MITGT-GGGK-NH2 [P5-D]
inhibition of VEGF-induced activation of KDR (KDR): inhibit activation of KDR

Ac-AGPTWC*EDDWYYC*WLFGT-GGGK-(Biotin-JJ-)-NH2 [P12-XB]
percentage inhibition of 125I-labeled VEGF binding ([1]; 0.3 μM peptide): 80.96±3.8%
percentage inhibition of 125I-labeled VEGF binding ([1]; 30 μM peptide): 104.48±2.07%

Ac-AQAFPRFGGDDYWIQQYLRYTDGGK-NH2 [P10-D]
inhibition of VEGF-induced activation of KDR (KDR): inhibit activation of KDR; also recorded: able to largely inhibit the VEGF-induced phosphorylation of KDR

Ac-AQGDYVYWEIIELTGATDHTPPGGGK-NH2 [P11-D]
inhibition at 10 µM (KDR; HUVEC, 10 μM, read-out: inhibition of VEGF-induced KDR phosphorylation): ≥ 50%
inhibition of VEGF-induced activation of KDR (KDR): inhibit activation of KDR

Ac-GDSRVC*WEDSWGGEVC*FRYDPGGGK-NH2 [P6-D]
inhibition of VEGF-induced activation of KDR (KDR): inhibit activation of KDR
